Results: US20070259865A1, “Agent for Promoting the Recovery from Dysfunction After the Onset of Central Neurological Disease” (Astellas Pharma Inc., priority 2004, published 2007)

Tests used:
[1] = test system: cerebral infarction rat model; assay: Beam-walking test, walking function in cerebral infarction rat model; type: in vivo; settings: vs. control group; male spontaneous hypertension rats after MCA occlusion; Compound A 5 and 10 mg/kg; D-amphetamine 0.75 and 1.5 mg/kg intraperitoneally; FIGS. 1-3 (a)
From the text: (§1) Blood Flow Metab. 8, 474-485, 1988.

[2] = test system: cerebral infarction rat model; assay: Foot-fault test, walking function in cerebral infarction rat model; type: in vivo; settings: vs. control group; forepaw on the disordered side; Compound A 5 and 10 mg/kg; D-amphetamine 0.75 and 1.5 mg/kg intraperitoneally; FIGS. 1-3 (b)
From the text: as §1

[3] = test system: spontaneous hypertension rats; assay: Effect on the circulatory system (heart rate); type: in vivo, rat
Experimental: After a cannula was inserted into the common carotid artery, heart rates were monitored. […] For the control group, physiological saline was administered intraperitoneally and the measurement was similarly conducted. Statistical analysis was conducted by one-way repeated-measures analysis of variance.

[4] = test system: cerebral infarction rat model; assay: Staircase test, forepaw function in cerebral infarction rat model; settings: vs. control group, Compound A 5 mg/kg orally five times per week, D-amphetamine 1.5 mg/kg intraperitoneally twice per week, to week 6; for forepaw dysfunction, number of displaced pellets in the staircase test: FIG. 4 (a); for forepaw dysfunction, number of eaten pellets in the staircase test: FIG. 4 (b)
[5] = test system: cerebral infarction rat model; settings: D-amphetamine 0.75 and 1.5 mg/kg, FIG. 5

Cl.Fc1ccc(OC[C@@H]2CNCCO2)c2c1CCC2 [Compound A, (S)-2-[[(7-Fluoro-4-indanyl)oxy]methyl]morpholine hydrochloride]
improvement effect on gait function in the beam-walking test (score) [1]: significant improvement effect | improvement effect on gait function in the foot-fault test (% foot-faults) [2]: significant improvement effect | effect on heart rate ([3]; rat, in vivo): no effect on heart rate | forepaw dysfunction, number of displaced pellets in the staircase test [4]: significant improvement effect | forepaw dysfunction, number of eaten pellets in the staircase test [4]: significant improvement effect

C[C@H](N)Cc1ccccc1 [D-amphetamine]
effect on heart rate ([3]; recorded until 4 hours after administration, Compound A orally, D-amphetamine intraperitoneally, vs. basal value, FIG. 6): significant accentuation of heart rate | forepaw dysfunction, number of displaced pellets in the staircase test [4]: the effect was not significant | forepaw dysfunction, number of eaten pellets in the staircase test [4]: the effect was not significant | effect on the number of steps (locomotor activity, excitatory effect) [5]: remarkable increase in the number of steps

CNCCC(Oc1ccc(C(F)(F)F)cc1)c1ccccc1 (centres unmarked) [fluoxetine, Fluoxetine]
improvement effect on gait function in the beam-walking test (score) [1]: no evident improvement effect | improvement effect on gait function in the foot-fault test (% foot-faults) [2]: no evident improvement effect
